Patent US12534439B2, “Xanthohumol derivatives and methods for making and using” (Oregon State University, priority 2021, dated 2026)
Where two headings read alike, the source gives them in different places.

What was measured:
HFD-fed C57BL/6J mice = test: Metabolic cages: indirect calorimetry, energy expenditure, motor activity; assay type: in vivo; details: for All movements (direct locomotion and fine movements) versus control: three dark and two light cycles; for Mean respiratory exchange ratio (RER) versus control: week 6; for Increase of mean energy expenditure (EE): week 6, normalized on body weight, dark and light cycles
Method: Measure of Metabolic Activity. Metabolic determinations were performed at week 6, with four mice from each treatment group housed in Promethion metabolic cages (Sable Systems, Las Vegas, NV, USA). The indirect calorimetry system consists of metabolic cages identical to regular cages with bedding, each equipped with food hoppers connected to load cells for food intake monitoring. Prior to data collection, all mice were acclimated to the cages for 8 hours. A standard 12 hours light/dark cycle was maintained throughout the calorimetry studies, and data was collected over three dark cycles and two light cycles. Metabolic measurements such as EE and respiratory exchange […] (calculated from the ratio of CO2 volume produced and O2 volume consumed) were measured. Motor activity and food intake were also recorded. JC-1 Mitochondrial Membrane Potential Assay. C2Cl2 cells were seeded in 96-well plates at 1×10^4 cells/mL. After 24 hours, the culture medium was replaced with fresh medium containing carbonyl cyanide p-(trifluoromethoxy) phenylhydrazone (FCCP) from Sigma-Aldrich (St Louis, MO, USA), XP, XN, or DMSO vehicle. Cells were incubated in the presence of the treatments for 1 h and 5,5′,6,6′-tetrachloro-1,1′,3,3′-tetraethylbenzimidazolylcarbocyanine iodide (JC-1) dye was added to each well following the manufacturer's protocol (Cayman Chemical, Ann Arbor, MI, USA). JC-1 aggregates were detected with excitation and emission wavelengths of 540 and 570 nm. JC-1 monomers were detected with excitation and emission wavelengths of 485 and 535 nm on a BioTek Synergy HT plate reader.

[1] = Quantification of XP and XN in plasma and cortex by UPLC-MS with or without glucuronidase digestion; assay type: in vivo, mice; details: for concentration at 11 weeks: C57BL/6J, mouse, without glucuronidase digestion, daily oral XP 30, XN 60 mg/kg body weight, mean ± SEM
Method: Quantification of XP and XN. For plasma extractions, ascorbic acid (5 μL, 10% m/m water, Sigma-Aldrich, St Louis, MO, USA) was added to 40 μL of plasma. For tissue extractions, 20 mg of cortex was extracted with 200 μL of 50% methanol in water and 10 μL of ascorbic acid (10% m/m water). Samples were incubated with or without 10 μL of glucuronidase (20 mg/mL, Sigma-Aldrich, St Louis, MO, USA) for 3 hours at 37° C. The samples were extracted with 200 μL of acetonitrile containing 100 ng/mL of [13C3]-XN. The supernatant was transferred to a new tube and vacuum-dried, and the pellet was reconstituted in 100 μL of 50% methanol in water. UPLC-MS was performed using a hybrid triple quadrupole linear ion trap mass spectrometer (4000 QTRAP, AB SCIEX, Toronto, Canada). The elution profile was set as follows: 5% B from 0 to 0.5 min, 5 to 100% B from 0.5 to 3 minutes, 1 minute hold at 100% B, followed by re-equilibration of the HPLC column at 5% B for 2 minutes. Selected reaction monitoring transitions used for quantification were m/z 353.1>119.1 for XN, m/z 379.3>321.3 for XP, and m/z 356.1>120.1 for the [13C3]-XN internal standard.
For plasma extractions, ascorbic acid (5 μL, 10% m/m water, Sigma Aldrich, St Louis, MO, USA) was added to 40 μL of plasma. Samples were incubated with or without 10 μL glucuronidase (20 mg/mL, Sigma Aldrich, St Louis, MO, USA) for 3 hr at 37° C. Samples were extracted with 200 μL of acetonitrile containing 100 ng/mL [^13C3]—XN^1. The supernatant was transferred to a new tube, vacuum-dried and the pellet was reconstituted in 100 μL of 50% methanol in water. UPLC-MS was performed using a hybrid triple quadrupole linear ion trap mass spectrometer (4000 QTRAP, AB SCIEX, Toronto, Canada) as previously reported with some modifications. The elution profile was set as follows: 5% solvent B from 0 to 0.5 minute, 5% to 100% B from 0.5-3 minutes, 1 minute hold at 100% B followed by re-equilibration of the HPLC column at 5% B for 2 minutes. Selected Reaction Monitoring transitions used for quantification were m/z 353.1>119.1 for XN, m/z 379.3>321.3 for XP and m/z 356.1>120.1 for [^13C3]—XN internal standard. XP and XN concentrations were calculated by the external calibration method using calibration curves constructed from pure XP and XN standards.

C2Cl2 cells = test: JC-1 mitochondrial membrane potential assay; assay type: cell-based, murine; details: compared with FCCP
Method: Mitochondrial respiration is coupled to ATP synthesis through an electrochemical proton gradient. Proton leak across the inner membrane results in depolarization of the mitochondrial transmembrane without deleteriously lowering the ATP synthesis. Proton leak can be mediated by UCPs and leads to the dissipation of the energy derived from substrate oxidation as heat. Considering the XP and XN effect on EE, the thermogenic activity was evaluated by assessing changes in UCP1 protein expression in the skeletal muscle, BAT, and WAT of HFD-fed mice. Unexpectedly, XP had no effect in UCP1 in the skeletal muscle, BAT, or WAT of HFD-fed mice (FIG. 18A). […] Therefore, the XP intrinsic protonophore properties were investigated by measured variations of mitochondrial membrane potential (ΔψM) in C2Cl2 cells stained with JC-1 dye. […]
Measure of Metabolic Activity. […] Metabolic measurements such as EE and respiratory exchange […] (calculated from the ratio of CO2 volume produced and O2 volume consumed) were measured. Motor activity and food intake were also recorded. […] JC-1 aggregates were detected with excitation and emission wavelengths of 540 and 570 nm. JC-1 monomers were detected with excitation and emission wavelengths of 485 and 535 nm on a BioTek Synergy HT plate reader.

HepG2 cells = details: cited from earlier work
[2] = cortex, read-out: CORTEX concentration, Non-glucuronidated
[3] = plasma, read-out: PLASMA concentration, Non-glucuronidated

Compound	Locomotor movement increased versus control (HFD-fed C57BL/6J mice; p=0.06)	All movements (direct locomotion and fine movements) versus control (HFD-fed C57BL/6J mice)	Mean respiratory exchange ratio (RER) versus control (HFD-fed C57BL/6J mice)	Increase of mean energy expenditure (EE) (HFD-fed C57BL/6J mice; versus control)	concentration at 11 weeks [1, 2] [ng/g]	concentration at 11 weeks [1, 3] [ng/mL]	Effect on JC-1 aggregates/monomers ratio (C2Cl2 cells)	Cytotoxic concentration (HepG2 cells)	Percent ambulatory time versus control (HFD-fed C57BL/6J mice; mouse, in vivo)	Increase of locomotor movement (direct locomotion) (HFD-fed C57BL/6J mice; versus control)	Increase of mean energy expenditure (EE) (HFD-fed C57BL/6J mice; versus control, listed as 4-(5-(4-hydroxyphenyl)-1-methyl-1h-pyrazol-3-yl)-5-methoxy-2-(3-methylbut-2-en-1))	Phase 1 metabolism ([1]; plasma of treated mice)	Metabolites detected in plasma ([1]; plasma of treated mice, mass spectrometric analysis)
COc1cc(O)c(CC=C(C)C)c(O)c1C(=O)/C=C/c1ccc(O)cc1 [XN, xanthohumol]	not	increased	increased	4-8%	59.7 ± 16.8	13.2 ± 3.07	dose-dependent and milder than that of protonophore FCCP	above 25 μM					
COc1cc(O)c(CC=C(C)C)c(O)c1-c1cc(-c2ccc(O)cc2)n(C)n1 [XP, 4-(5-(4-hydroxyphenyl)-1-methyl-1H-pyrazol-3-yl)-5-methoxy-2-(3-methylbut-2-en-1-yl)benzene-1,3-diol]		increased	increased	up to 27%	40.1 ± 2.8	43.5 ± 3.54	dose-dependent and milder than that of protonophore FCCP		increased	75-135%	20-27%	resistant to phase 1 metabolism	XP-glucuronide was the only metabolite
